Patent US20090012103A1, “SUBSTITUTED HETEROCYCLIC COMPOUNDS” (priority 2007, published 2009)

Legend:
hERG potassium channel = hERG potassium channel (Homo sapiens, UniProt Q12809); test: hERG screening assay (PatchXpress patch clamp, CHO cell line)
Experimental: Compounds were screened to test their activity in blocking the hERG potassium channel. The hERG channel is heterologously expressed in a CHO (Chinese Hamster Ovary) cell line. Cells are maintained with standard tissue culture procedures and stable channel expression is maintained with 500 μg/ml G418 in the culture medium. Cells are harvested for testing on the PatchXpress automated patch clamp with Accumax (Innovative Cell Technologies, San Diego, Calif.) to isolate single cells.
The following solutions are used for electrophysiological recordings. The external solution contains: 2 mM CaCl2; 2 mM MgCl2; 4 mM KCl; 150 mM NaCl; 10 mM Glucose; 10 mM HEPES (pH 7.4 with 1M NaOH, osmolarity).
hERG channels are activated when the voltage is stepped to +20 mV from the −80 mV holding potential (see FIG. 3). During a 5 second step at +20 mV, the channels activate and then largely inactivate, so the currents are relatively small. Upon returning to −50 mV from +20 mV, hERG currents transiently become much larger as inactivation is rapidly removed and then the channel closes. The first step to −50 mV for 300 ms is used as a baseline for measuring the peak amplitude during the step to −50 mV after channel activation. The peak current at −50 mV is measured both under control conditions and after addition of compound.
All compounds are prepared as 10 mM DMSO stocks in glass vials. Stock solutions are mixed by vigorous vortexing and sonication for about 2 minutes at room temperature. For testing, compounds are diluted in glass vials using an intermediate dilution step in pure DMSO and then further diluted to working concentrations in external solution. Dilutions are prepared no longer than 20 minutes before use.
After achieving the whole-cell configuration, cells are monitored for 90 seconds to assess stability and washed with external solution for 66 seconds. The voltage protocol described above is then applied to the cells every 12 seconds and throughout the whole procedure. Only cells with stable recording parameters and meeting specified health criteria are allowed to enter the compound addition procedure.
External solution containing 0.1% DMSO (vehicle) is applied to the cells first to establish the control peak current amplitude. After allowing the current to stabilize for 3 to 5 minutes, 1 μM and then 10 μM test compounds are applied. Each compound concentration is added 4 times and cells are kept in test solution until the effect of the compound reaches steady state or for a maximum of 12 minutes. […] Washout in the external solution compartment is performed until the recovery of the current reaches steady state. Data are analyzed using DataXpress, Clampfit (Molecular Devices, Inc., Sunnyvale) and Origin 7 (Originlab Corp.)

[1] = biological target: wild-type human cardiac sodium channel, hNav1.5 (Homo sapiens, UniProt Q14524); test: Late INa screening assay (late sodium current, PatchXpress whole cell patch clamp); assay type: cell-based; settings: for inhibition at 10 µM: compound at 10 μM, read-out: Late INa % blk
Chain of wild-type human cardiac sodium channel, hNav1.5 (Q14524 whole entry): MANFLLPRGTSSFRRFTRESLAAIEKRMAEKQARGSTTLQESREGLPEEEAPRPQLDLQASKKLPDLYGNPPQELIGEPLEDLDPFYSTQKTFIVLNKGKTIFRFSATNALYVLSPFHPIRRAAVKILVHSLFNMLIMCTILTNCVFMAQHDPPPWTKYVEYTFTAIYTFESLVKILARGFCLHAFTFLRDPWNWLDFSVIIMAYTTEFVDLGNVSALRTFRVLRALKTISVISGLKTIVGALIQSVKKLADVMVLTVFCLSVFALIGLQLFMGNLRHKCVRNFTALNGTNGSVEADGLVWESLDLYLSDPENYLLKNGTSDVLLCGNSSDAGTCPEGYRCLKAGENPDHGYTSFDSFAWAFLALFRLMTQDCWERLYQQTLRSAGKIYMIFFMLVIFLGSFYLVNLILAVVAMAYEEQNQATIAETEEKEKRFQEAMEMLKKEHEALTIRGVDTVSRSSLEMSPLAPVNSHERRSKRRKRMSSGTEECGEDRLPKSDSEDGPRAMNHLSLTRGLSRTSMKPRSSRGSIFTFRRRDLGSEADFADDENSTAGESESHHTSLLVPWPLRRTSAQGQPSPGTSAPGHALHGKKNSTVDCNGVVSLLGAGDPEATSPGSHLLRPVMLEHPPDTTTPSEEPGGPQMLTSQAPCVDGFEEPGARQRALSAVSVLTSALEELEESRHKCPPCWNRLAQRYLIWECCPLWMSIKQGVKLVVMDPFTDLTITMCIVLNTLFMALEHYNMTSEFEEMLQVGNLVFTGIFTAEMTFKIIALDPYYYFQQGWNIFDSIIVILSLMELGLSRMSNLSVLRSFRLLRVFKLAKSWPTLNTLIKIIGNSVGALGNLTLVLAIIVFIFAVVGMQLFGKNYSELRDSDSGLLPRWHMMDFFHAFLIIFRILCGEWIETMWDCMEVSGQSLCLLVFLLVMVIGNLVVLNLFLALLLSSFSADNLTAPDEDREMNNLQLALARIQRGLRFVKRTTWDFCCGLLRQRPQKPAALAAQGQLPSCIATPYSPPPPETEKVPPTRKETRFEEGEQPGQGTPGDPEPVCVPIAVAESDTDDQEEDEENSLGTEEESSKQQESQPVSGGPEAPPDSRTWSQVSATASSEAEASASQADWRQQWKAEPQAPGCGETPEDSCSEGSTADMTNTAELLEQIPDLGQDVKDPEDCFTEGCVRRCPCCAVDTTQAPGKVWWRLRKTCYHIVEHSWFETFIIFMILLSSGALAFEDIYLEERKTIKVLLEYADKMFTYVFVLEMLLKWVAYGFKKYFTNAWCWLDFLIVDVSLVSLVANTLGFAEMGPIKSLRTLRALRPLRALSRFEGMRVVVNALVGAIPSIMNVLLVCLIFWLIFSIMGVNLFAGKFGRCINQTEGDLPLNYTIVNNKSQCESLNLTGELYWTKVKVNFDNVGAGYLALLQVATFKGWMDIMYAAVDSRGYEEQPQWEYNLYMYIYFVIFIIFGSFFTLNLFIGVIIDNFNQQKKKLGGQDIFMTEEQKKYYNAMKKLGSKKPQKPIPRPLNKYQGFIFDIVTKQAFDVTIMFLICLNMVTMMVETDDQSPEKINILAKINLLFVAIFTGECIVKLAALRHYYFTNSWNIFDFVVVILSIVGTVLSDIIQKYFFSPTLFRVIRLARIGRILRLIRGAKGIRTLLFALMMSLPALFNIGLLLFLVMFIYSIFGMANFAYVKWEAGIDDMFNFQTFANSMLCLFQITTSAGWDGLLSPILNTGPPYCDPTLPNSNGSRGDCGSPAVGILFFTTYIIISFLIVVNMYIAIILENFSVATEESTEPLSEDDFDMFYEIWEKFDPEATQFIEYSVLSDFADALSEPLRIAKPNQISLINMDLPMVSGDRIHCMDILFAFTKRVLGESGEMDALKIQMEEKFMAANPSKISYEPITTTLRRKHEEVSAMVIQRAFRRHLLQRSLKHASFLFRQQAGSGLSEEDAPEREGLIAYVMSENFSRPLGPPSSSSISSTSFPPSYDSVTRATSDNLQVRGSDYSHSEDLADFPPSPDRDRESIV

Chain of hERG potassium channel (Q12809 whole entry): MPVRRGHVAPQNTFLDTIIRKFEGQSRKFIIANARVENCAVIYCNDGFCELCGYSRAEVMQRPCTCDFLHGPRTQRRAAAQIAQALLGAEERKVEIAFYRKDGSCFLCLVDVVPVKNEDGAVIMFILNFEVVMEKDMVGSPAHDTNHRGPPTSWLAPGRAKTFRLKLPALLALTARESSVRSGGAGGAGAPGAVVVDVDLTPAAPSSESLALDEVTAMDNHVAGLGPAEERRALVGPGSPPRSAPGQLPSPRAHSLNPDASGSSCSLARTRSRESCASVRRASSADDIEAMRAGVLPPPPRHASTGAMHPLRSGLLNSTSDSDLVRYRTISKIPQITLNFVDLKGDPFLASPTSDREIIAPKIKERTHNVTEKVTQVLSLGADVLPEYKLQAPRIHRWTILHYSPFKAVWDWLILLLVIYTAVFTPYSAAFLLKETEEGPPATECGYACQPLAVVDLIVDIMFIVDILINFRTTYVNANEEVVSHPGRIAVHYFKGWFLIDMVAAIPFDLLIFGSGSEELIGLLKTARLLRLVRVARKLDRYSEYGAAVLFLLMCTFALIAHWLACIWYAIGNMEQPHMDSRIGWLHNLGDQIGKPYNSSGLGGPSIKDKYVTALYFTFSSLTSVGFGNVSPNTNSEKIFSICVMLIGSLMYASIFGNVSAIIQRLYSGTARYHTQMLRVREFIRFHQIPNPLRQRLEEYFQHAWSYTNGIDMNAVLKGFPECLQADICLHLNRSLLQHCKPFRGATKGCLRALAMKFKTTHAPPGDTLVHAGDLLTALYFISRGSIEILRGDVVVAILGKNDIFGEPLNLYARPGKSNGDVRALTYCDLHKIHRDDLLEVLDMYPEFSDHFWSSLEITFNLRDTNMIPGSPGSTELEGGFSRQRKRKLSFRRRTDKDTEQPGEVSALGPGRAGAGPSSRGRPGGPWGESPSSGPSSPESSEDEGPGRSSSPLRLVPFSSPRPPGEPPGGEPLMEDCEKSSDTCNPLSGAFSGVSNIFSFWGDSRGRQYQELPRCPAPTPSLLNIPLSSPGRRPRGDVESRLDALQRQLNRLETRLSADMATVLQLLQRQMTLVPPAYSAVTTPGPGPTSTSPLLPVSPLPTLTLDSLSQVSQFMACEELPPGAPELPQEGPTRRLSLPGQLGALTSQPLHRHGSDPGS

Row | Compound | hERG Patch Clamp hERG % blk (hERG potassium channel; 1 μM) | hERG Patch Clamp hERG % blk (hERG potassium channel; 10 μM) | inhibition at 10 µM [1] | effect on late sodium current ([1]; result in words)
1 | CC1=C(C(=O)OCc2ccccc2)C(c2ccccc2-c2ccc(C(=O)O)cc2)C2=C(CCCC2=O)N1 (stereo not drawn) [PT-249, 2′-(3-(benzyloxycarbonyl)-2-methyl-5-oxo-1,4,5,6,7,8-hexahydroquinolin-4-yl)biphenyl-4-carboxylic acid] | 11.5% | 15.5% | 20% | 
2 | CCCC1=C(C(=O)OCC)C(c2ccsc2)C2=C(CC(c3ccco3)CC2=O)N1 (stereo not drawn) [PT-150, ethyl 7-(furan-2-yl)-5-oxo-2-propyl-4-(thiophen-3-yl)-1,4,5,6,7,8-hexahydroquinoline-3-carboxylate] | 28.2% | 49.3% | 52.9% | 
3 | CCOC(=O)C1=C(C)NC(C)=C(C(=O)OCC)C1c1cc2ccccc2o1 [PT-122, diethyl 4-(benzofuran-2-yl)-2,6-dimethyl-1,4-dihydropyridine-3,5-dicarboxylate] | 15.5% | 55.0% | 80.3% | 
4 | COc1ccc2ccccc2c1C1C(C(=O)OCc2ccccc2)=C(C)Nc2nnnn21 (stereo not drawn) [PT-030, benzyl 7-(2-methoxynaphthalen-1-yl)-5-methyl-4,7-dihydrotetrazolo[1,5-a]pyrimidine-6-carboxylate] | 10.5% | 34.5% | 66.5% | 
5 | CC1=C(c2nnc(CCc3ccccc3)o2)C(c2cccc3ccccc23)n2nnnc2N1 (stereo not drawn) [PT-252, 2-(5-methyl-7-(naphthalen-1-yl)-4,7-dihydrotetrazolo[1,5-a]pyrimidin-6-yl)-5-phenethyl-1,3,4-oxadiazole] | 10.5% | 78.0% | 70% | 
6 | CC1=C(C(=O)OCc2ccccc2)C(c2cccc3c2OCO3)n2nnnc2N1 (stereo not drawn) [PT-034, benzyl 7-(benzo[d][1,3]dioxol-4-yl)-5-methyl-4,7-dihydrotetrazolo[1,5-a]pyrimidine-6-carboxylate] | 14.5% | 56.0% | 52.4% | 
7 | CCOC(=O)C1=C(C)Nc2nnnn2C1c1ccccc1-n1cccn1.Cl (stereo not drawn) [PT-477, ethyl 7-(2-(1H-pyrazol-1-yl)phenyl)-5-methyl-4,7-dihydrotetrazolo[1,5-a]pyrimidine-6-carboxylate hydrochloride] | 12.0% | 44.0% | 6.2% | 
8 | CCOC(=O)C1=C(C)NC2=C(C(=O)CCC2)C1c1cccc2ncccc12 (stereo not drawn) [PT-140, ethyl 2-methyl-5-oxo-1,4,5,6,7,8-hexahydro-4,5′-biquinoline-3-carboxylate] | 13.5% | 34.5% | 6.3% | 
9 | CC(=O)c1ccc(-c2ccccc2C2C(C(=O)OCc3ccccc3)=C(C)Nc3nnnn32)cc1 (stereo not drawn) [PT-415, benzyl 7-(4′-acetylbiphenyl-2-yl)-5-methyl-4,7-dihydrotetrazolo[1,5-a]pyrimidine-6-carboxylate] | 10.5% | 38.5% | 75.4% | 
10 | CC1=C(C(=O)N2CCN(c3ccccc3)CC2)C(c2ccc3ccccc3c2)C2=C(CCCC2=O)N1 (stereo not drawn) [PT-165, 2-methyl-4-(naphthalen-2-yl)-3-(4-phenylpiperazine-1-carbonyl)-4,6,7,8-tetrahydroquinolin-5(1H)-one] | 30.5% | 64.5% |  | potentiated late sodium current
11 | CCOC(=O)C1=C(C)Nc2c(c(C)nn2C)C1c1cccc2ccccc12 (stereo not drawn) [PT-440, ethyl 1,3,6-trimethyl-4-(naphthalen-1-yl)-4,7-dihydro-1H-pyrazolo[3,4-b]pyridine-5-carboxylate] | 12.0% | 48.0% | 42.8% | 
12 | COC(=O)C1=C(C)Nc2nnnn2C1c1cccc2ccccc12 (stereo not drawn) [PT-512, methyl 5-methyl-7-(naphthalen-1-yl)-4,7-dihydrotetrazolo[1,5-a]pyrimidine-6-carboxylate] | 10.5% | 14.0% | 26.6% | 
13 | CCCC1=C(C(=O)OCC)C(c2ccsc2)C2=C(CC(c3ccccc3)CC2=O)N1 (stereo not drawn) [PT-149, ethyl 5-oxo-7-phenyl-2-propyl-4-(thiophen-3-yl)-1,4,5,6,7,8-hexahydroquinoline-3-carboxylate] | 24.3% | 67.0% | 71.5% | 
14 | CC1=C(C(=O)OCc2ccccc2)C(c2sccc2-c2ccc(F)cc2)n2nnnc2N1 (stereo not drawn) [PT-397, benzyl 7-(3-(4-fluorophenyl)thiophen-2-yl)-5-methyl-4,7-dihydrotetrazolo[1,5-a]pyrimidine-6-carboxylate] | 10.0% | 25.0% | 69.1% | 
15 | CC1=C(C(=O)OCc2ccccc2)C(c2nccs2)n2nccc2N1 (stereo not drawn) [PT-363, benzyl 5-methyl-7-(thiazol-2-yl)-4,7-dihydropyrazolo[1,5-a]pyrimidine-6-carboxylate] | 10.0% | 19.5% | 40.9% | 
16 | CC1=C(C(=O)OCc2ccc(Cn3cccn3)cc2)C(c2cccc3ccccc23)n2nnnc2N1 (stereo not drawn) [PT-279, 4-((1H-pyrazol-1-yl)methyl)benzyl 5-methyl-7-(naphthalen-1-yl)-4,7-dihydrotetrazolo[1,5-a]pyrimidine-6-carboxylate] | 12.5% | 45.0% | 61.2% | 
17 | CC1=C(C(=O)NCc2ccccc2)C(c2ccsc2)C2=C(CCCC2=O)N1 (stereo not drawn) [PT-178, N-benzyl-2-methyl-5-oxo-4-(thiophen-3-yl)-1,4,5,6,7,8-hexahydroquinoline-3-carboxamide] | 11.5% | 30.0% | 0.3% | 
18 | CCOC(=O)C1=C(C)Nc2nnnn2C1c1ccccc1-c1cccc(-c2nnn[nH]2)c1 (stereo not drawn) [PT-493, ethyl 7-(3′-(1H-tetrazol-5-yl)biphenyl-2-yl)-5-methyl-4,7-dihydrotetrazolo[1,5-a]pyrimidine-6-carboxylate] | 10.0% | 10.0% | 0.5% | 
19 | CCOC(=O)C1=C(C)Nc2nnnn2C1c1csc2ccccc12 (stereo not drawn) [PT-017, ethyl 7-(benzo[b]thiophen-3-yl)-5-methyl-4,7-dihydrotetrazolo[1,5-a]pyrimidine-6-carboxylate] | 10.0% | 23.5% | 45.9% | 
20 | CC1=C(C(=O)OCc2ccccc2)C(c2c3ccccc3cc3ccccc23)n2nnnc2N1 (stereo not drawn) [PT-039, benzyl 7-(anthracen-9-yl)-5-methyl-4,7-dihydrotetrazolo[1,5-a]pyrimidine-6-carboxylate] | 10.0% | 27.5% | 82.1% | 
21 | CC1=C(C(=O)NCc2ccccc2)C(c2ccc3ccccc3c2)n2nnnc2N1 (stereo not drawn) [PT-068, N-benzyl-5-methyl-7-(naphthalen-2-yl)-4,7-dihydrotetrazolo[1,5-a]pyrimidine-6-carboxamide] | 14.0% | 22.5% | 14.3% | 
22 | CC1=C(C(=O)OCc2ccccc2)C(c2ccccc2-c2ccc(NS(C)(=O)=O)cc2)c2cn[nH]c2N1 (stereo not drawn) [PT-366, benzyl 6-methyl-4-(4′-(methylsulfonamido)biphenyl-2-yl)-4,7-dihydro-1H-pyrazolo[3,4-b]pyridine-5-carboxylate] | 28.0% | 92.0% | 87.8% | 
23 | CC1=C(C(=O)OCc2ccccc2)[C@@H](c2ccccc2-c2ccc(Cl)s2)n2nnnc2N1 [PT-237, (R)-benzyl 7-(2-(5-chlorothiophen-2-yl)phenyl)-5-methyl-4,7-dihydrotetrazolo[1,5-a]pyrimidine-6-carboxylate] | 11.5% | 22.5% | 61.5% | 
